# Test results reported in patent US5684023A, “Benzofuranyl -and benzothienyloxazolidinones” (Bayer Aktiengesellschaft, priority 1994, dated 1997).
# Experiments:
# Experiment in all cases: MIC, serial dilution (Iso-Sensitest agar / microdilution in BH medium)
# Format in all cases: cell-based
# Staph. 48N = details: 37° C., about 20 hours
# Experimental: (§1) The minimum inhibitory concentrations (MIC) were determined by serial dilution methods on Iso-Sensitest agar (Oxoid). For each test substance, a number of agar plates were prepared which contained a decreasing concentration of the active compound on double dilution in each case. The agar plates were inoculated with a multipoint inoculator (Denley). For inoculation, overnight cultures of the bacilli were used which were previously diluted such that each inoculation point contained about 10^4 colony-forming particles. The inoculated agar plates were incubated at 37° C., and the bacterial growth was read off after about 20 hours. The MIC value (μg/ml) indicates the lowest active compound concentration at which no growth could be detected using the naked eye. The MIC values were determined in BH medium with the aid of the microdilution method. Each test substance was dissolved in the nutrient medium. A concentration series of the test substances was prepared in the microtiter plates by serial dilution. For inoculation, overnight cultures of the bacilli were used which had previously been diluted 1:250 in the nutrient medium. 100 μl each of inoculation solution were added to 100 μl of the diluted, active compound-containing nutrient solutions. The microtiter plates were incubated at 37° C. and read off after about 20 hours. The MIC value (μg/ml) indicates the lowest active compound concentration at which no growth could be detected.
# Psdm. Bonn = details: 37° C., about 20 hours
# Experimental: as §1
# Staph 9TV = details: 37° C., about 20 hours
# Experimental: as §1
# Staph. 133 = details: 37° C., about 20 hours
# Experimental: as §1
# Klebs. 57 USA = details: 37° C., about 20 hours
# Experimental: as §1
# E. coli Neumann = details: Escherichia coli, 37° C., about 20 hours
# Experimental: as §1
# Staph 25701 = details: 37° C., about 20 hours
# Experimental: as §1
MIC (Staph. 48N) [µg/mL],MIC (Psdm. Bonn) [µg/mL],MIC (Staph 9TV) [µg/mL],MIC (Staph. 133) [µg/mL],MIC (Klebs. 57 USA) [µg/mL],MIC (E. coli Neumann) [µg/mL],MIC (Staph 25701) [µg/mL],SMILES
1,> 64,0.5,1,> 64,> 64,1,CC(=O)NC[C@H]1CN(c2ccc3oc(C)cc3c2)C(=O)O1 [Example 16]
16,> 64,8,16,> 64,> 64,16,CC(=O)NC[C@H]1CN(c2ccc3c(c2)C=CS3(=O)=O)C(=O)O1 [Example 27]
4,> 64,2,4,> 64,> 64,2,"CC(=O)NC[C@H]1CN(c2ccc3sccc3c2)C(=O)O1 [Example 9, (5S)-3-[5-Benzo[b]thiophenyl]5-acetylamino-methyl-oxazolidin-2-one]"
